The test addresses Cystathionine gamma-lyase (Homo sapiens, UniProt P32929).

Chain of Cystathionine gamma-lyase (P32929 whole entry): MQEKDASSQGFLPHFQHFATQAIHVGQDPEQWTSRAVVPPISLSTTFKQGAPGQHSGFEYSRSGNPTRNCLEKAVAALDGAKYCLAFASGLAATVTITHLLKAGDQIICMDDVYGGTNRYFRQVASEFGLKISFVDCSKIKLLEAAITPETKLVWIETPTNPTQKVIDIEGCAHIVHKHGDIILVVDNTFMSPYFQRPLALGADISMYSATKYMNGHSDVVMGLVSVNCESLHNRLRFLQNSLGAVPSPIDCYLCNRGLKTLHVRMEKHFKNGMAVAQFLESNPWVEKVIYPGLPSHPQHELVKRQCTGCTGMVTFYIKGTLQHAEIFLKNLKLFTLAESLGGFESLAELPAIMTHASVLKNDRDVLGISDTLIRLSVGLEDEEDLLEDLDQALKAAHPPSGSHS

For orientation: IC50 means the concentration that gives 50% inhibition. `C#CCC(N)C(=O)O` (configuration not stated) displayed an IC50 of less than 25 µM.

Regarding `C#CC[C@@H](N)C(=O)O`, the IC50 was greater than 100 µM.

Regarding `C#CC[C@H](N)c1nc(C(F)(F)F)n[nH]1`, the IC50 is greater than 100 µM.

With `C#CC[C@H](N)c1ncn[nH]1`, the IC50 was less than 25 µM.

`N#CCC(N)C(=O)O` (configuration not stated) had an IC50 of less than 25 µM.

Consider `C#CC[C@H](N)c1nc(N)n[nH]1`, for which the half-inhibitory concentration (IC50) is greater than 100 µM.

`C#CC[C@H](N)c1noc(=O)[nH]1` had an IC50 of less than 25 µM.

(Values after ChEMBL document CHEMBL5726724, “Cystathionine-gamma-lyase (CSE) inhibitors” (2019).)
